Experimental data published in patent US20090149440A1, “NOVEL PYRIDONECARBOXYLIC ACID DERIVATIVES OR SALTS THEREOF” (priority 2004, published 2009).
Values after ≈ are worked out from the molar mass of the structure shown. One block for each compound: values may come before it.

Columns and labels:
[1] = system: female ICR mice; assay: Phototoxicity test: ear abnormalities after UV irradiation; format: in vivo; parameters: key to Phototoxicity score: normal (0 point); slight erythema (score 1); medium erythema (score 2); serious erythema or edema (score 3); details: 40 mg/10 mL/kg intravenously, UV 320 to 400 nm for four hours
Experimental: Each test compound was intravenously administered (40 mg/10 mL/kg) to female ICR mice (5- to 6-weeks old), and the mice were irradiated with UV-rays (320 to 400 nm, 1.8 mW/cm^2/sec) for four hours. Abnormalities induced in the ear of each mouse were observed immediately after (0 hour), 24 hours after, and 48 hours after the irradiation. The abnormality was evaluated according to the following criteria: normal (0 point), slight erythema (score 1), medium erythema (score 2), and serious erythema or edema (score 3).

[2] = system: MRSA W44; assay: Antibacterial activity, minimum inhibitory concentration (standard method of the Japanese Society of Chemotherapy); format: cell-based; details: Staphylococcus aureus
Experimental: (§1) Minimum inhibitory concentration (MIC: μg/mL) of the compounds shown in Table 1 was determined according to the standard method of the Japanese Society of Chemotherapy (CHEMOTHERAPY 29(1), 76, 1981).

[3] = system: M. luteus IFO12708; assay: as above; format: cell-based; details: Micrococcus luteus
Experimental: as §1

[4] = system: P. mirabilis IFO3849; assay: as above; format: cell-based; details: Proteus mirabilis
Experimental: as §1

[5] = system: S. haemolytlcus 67; assay: as above; format: cell-based
Experimental: as §1

[6] = system: human serum proteins; assay: Binding rate to proteins by ultrafiltration method; format: in vitro ADME; details: 5 μg/mL, 37° C. for 30 minutes
Experimental: Binding rate to proteins of the compounds shown in Table 3 was determined by ultrafiltration method. Specifically, a 0.5 mg/mL DMSO solution of each compound was diluted with human serum or a 0.4% phosphate buffer (pH: 7.4 containing 0.5% NaCl) to thereby prepare a 5 μg/mL solution. The human serum solution was incubated at 37° C. for 30 minutes and centrifugally filtrated through a filter (pore size: 0.22 μm). A portion of the serum filtrate and the phosphate buffer solution were applied to an HPLC system, and the peak area of the compound was measured. Binding rate of each compound to human serum proteins was calculated by the following equation 1: Binding rate (%)=(A−B)×100/A (equation 1) A: Peak area (in phosphate buffer) B: Peak area (in serum filtrate)

[7] = Pharmacokinetics: absorbability after oral administration, serum level; format: in vivo, dogs; details: for Cmax / Tmax / half-life / AUC: dog, male beagle dogs, fasted, 10 mg/kg oral, 0.5% methylcellulose suspension, serum; for AUC: read-out: AUCO to 8 h
Experimental: Absorbability of the compounds shown in Table 4 was investigated in dogs. Specifically, a 0.5% methylcellulose suspension of each test compound (10 mg/kg) was forcedly orally administered to 2- to 4-years old male beagle dogs which had been fasted for 16 to 17 hours. The blood was collected from each dog at 0.25, 0.5, 1, 2, 4, 6, 8, and 24 hours after the administration, and the serum level of the test compound was determined to evaluate absorbability of the compound.

melting point: ≥ 210 °C (dec.)
SMILES: CC(C)NC1CN(c2c(F)cc3c(=O)c(C(=O)O)cn(-c4nc(N)c(F)cc4F)c3c2Br)C1.Cl

MIC [2]: 0.03 µg/mL (≈ 0.057 µM)
MIC [3]: 0.12 µg/mL (≈ 0.228 µM)
MIC [4]: 0.25 µg/mL (≈ 0.475 µM)
Binding rate to proteins [6]: 64.0%
SMILES: CC(C)NC1CN(c2c(F)cc3c(=O)c(C(=O)O)cn(-c4nc(N)c(F)cc4F)c3c2Br)C1 [compound 1, 1-(6-Amino-3,5-difluoropyridin-2-yl)-8-bromo-6-fluoro-7-(3-isopropylaminoazetidin-1-yl)-4-oxo-1,4-dihydroquinolin-3-carboxylic acid]
Phototoxicity incidence ([1]; 0 hour after irradiation): 0/3
Phototoxicity score ([1]; 0 hour after irradiation): 0
Phototoxicity incidence ([1]; 24 hours after irradiation): 0/3
Phototoxicity score ([1]; 24 hours after irradiation): 0
Phototoxicity incidence ([1]; 48 hours after irradiation): 0/3
Phototoxicity score ([1]; 48 hours after irradiation): 0
MIC [5]: 4 µg/mL (≈ 7.6 µM)

MIC [2]: 0.06 µg/mL (≈ 0.12 µM)
MIC [3]: 0.25 µg/mL (≈ 0.502 µM)
MIC [4]: 0.5 µg/mL (≈ 1 µM)
Binding rate to proteins [6]: 49.0%
SMILES: CNC1CN(c2c(F)cc3c(=O)c(C(=O)O)cn(-c4nc(N)c(F)cc4F)c3c2Br)C1 [compound 1, 1-(6-amino-3,5-difluoropyridin-2-yl)-8-bromo-6-fluoro-7-(3-methylaminoazetidin-1-yl)-4-oxo-1,4-dihydroquinolin-3-carboxylic acid]
Phototoxicity incidence ([1]; 0 hour after irradiation): 0/3
Phototoxicity score ([1]; 0 hour after irradiation): 0
Phototoxicity incidence ([1]; 24 hours after irradiation): 0/3
Phototoxicity score ([1]; 24 hours after irradiation): 0
Phototoxicity incidence ([1]; 48 hours after irradiation): 0/3
Phototoxicity score ([1]; 48 hours after irradiation): 0
MIC [5]: 8 µg/mL (≈ 16.1 µM)

melting point: ≥ 205 °C (dec.)
SMILES: CC(C)NC1CN(c2c(F)cc3c(=O)c(C(=O)O)cn(-c4nc(N)c(F)cc4F)c3c2Cl)C1 [compound 2, 1-(6-Amino-3,5-difluoropyridin-2-yl)-8-chloro-6-fluoro-7-(3-isopropylaminoazetidin-1-yl)-4-oxo-1,4-dihydroquinolin-3-carboxylic acid]

MIC [2]: 0.06 µg/mL (≈ 0.117 µM)
MIC [3]: 0.25 µg/mL (≈ 0.488 µM)
MIC [4]: 0.25 µg/mL (≈ 0.488 µM)
Binding rate to proteins [6]: 62.8%
SMILES: CCNC1CN(c2c(F)cc3c(=O)c(C(=O)O)cn(-c4nc(N)c(F)cc4F)c3c2Br)C1 [compound 2, 1-(6-amino-3,5-difluoropyridin-2-yl) 8-bromo-7-(3-ethylaminoazetidin-1-yl)-6-fluoro-4-oxo-1,4-dihydroquinolin-3-carboxylic acid]
Phototoxicity incidence ([1]; 0 hour after irradiation): 0/3
Phototoxicity score ([1]; 0 hour after irradiation): 0
Phototoxicity incidence ([1]; 24 hours after irradiation): 0/3
Phototoxicity score ([1]; 24 hours after irradiation): 0
Phototoxicity incidence ([1]; 48 hours after irradiation): 0/3
Phototoxicity score ([1]; 48 hours after irradiation): 0
MIC [5]: 8 µg/mL (≈ 15.6 µM)

melting point: ≥ 238 °C (dec.)
Binding rate to proteins [6]: 44.3%
SMILES: CCc1c(N2CC(NC(C)C)C2)c(F)cc2c(=O)c(C(=O)O)cn(-c3nc(N)c(F)cc3F)c12 [compound 3, 1-(6-Amino-3,5-difluoropyridin-2-yl)-6-fluoro-7-(3-isopropylaminoazetidin-1-yl)-8-ethyl-4-oxo-1,4-dihydroquinolin-3-carboxylic acid]

Cmax [7]: 1490 ng/mL
Tmax [7]: 1 h
half-life [7]: 3.2 h
AUC [7]: 7600 ng·h/mL
SMILES: CNC1CN(c2c(F)cc3c(=O)c(C(=O)O)cn(-c4nc(N)c(F)cc4F)c3c2Br)C1.O=C(O)/C=C\C(=O)O [compound 3, 1-(6-amino-3,5-difluoropyridin-2-yl) 8-bromo-6-fluoro-7-(3-methylaminoazetidin-1-yl)-4-oxo-1,4-dihydroquinolin-3-carboxylic acid maleic acid salt]

melting point: ≥ 225 °C (dec.)
Binding rate to proteins [6]: 44.9%
SMILES: CC(C)(C)NC1CN(c2c(F)cc3c(=O)c(C(=O)O)cn(-c4nc(N)c(F)cc4F)c3c2Br)C1 [compound 4, 1-(6-Amino-3,5-difluoropyridin-2-yl)-8-bromo-7-(3-tert-butylaminoazetidin-1-yl)-6-fluoro-4-oxo-1,4-dihydroquinolin-3-carboxylic acid]

Cmax [7]: 3730 ng/mL
Tmax [7]: 1 h
half-life [7]: 4.3 h
AUC [7]: 17500 ng·h/mL
SMILES: CCNC1CN(c2c(F)cc3c(=O)c(C(=O)O)cn(-c4nc(N)c(F)cc4F)c3c2Br)C1.O=C(O)/C=C\C(=O)O [compound 4, 1-(6-amino-3,5-difluoropyridin-2-yl) 8-bromo-7-(3-ethylaminoazetidin-1-yl)-6-fluoro-4-oxo-1,4-dihydroquinolin-3-carboxylic acid maleic acid salt]

melting point: ≥ 250 °C (dec.)
SMILES: CC(C)(C)NC1CN(c2c(F)cc3c(=O)c(C(=O)O)cn(-c4nc(N)c(F)cc4F)c3c2Cl)C1 [compound 5, 1-(6-Amino-3,5-difluoropyridin-2-yl)-7-(3-tert-butylaminoazetidin-1-yl)-8-chloro-6-fluoro-4-oxo-1,4-dihydroquinolin-3-carboxylic acid]

melting point: ≥ 193 °C (dec.)
Binding rate to proteins [6]: 26.8%
SMILES: Cc1c(N2CC(NC(C)(C)C)C2)c(F)cc2c(=O)c(C(=O)O)cn(-c3nc(N)c(F)cc3F)c12 [compound 6, 1-(6-Amino-3,5-difluoropyridin-2-yl)-7-(3-tert-butylaminoazetidin-1-yl)-6-fluoro-8-methyl-4-oxo-1,4-dihydroquinolin-3-carboxylic acid]

melting point: ≥ 218 °C (dec.)
SMILES: CNc1nc(-n2cc(C(=O)O)c(=O)c3cc(F)c(N4CC(NC(C)C)C4)c(C)c32)c(F)cc1F [compound 7, 1-(3,5-Difluoro-6-methylaminopyridin-2-yl)-6-fluoro-7-(3-isopropylaminoazetidin-1-yl)-8-methyl-4-oxo-1,4-dihydroquinolin-3-carboxylic acid]

melting point: ≥ 202 °C (dec.)
SMILES: CCNc1nc(-n2cc(C(=O)O)c(=O)c3cc(F)c(N4CC(NC(C)C)C4)c(C)c32)c(F)cc1F [compound 8, 1-(6-Ethylamino-3,5-difluoropyridin-2-yl)-6-fluoro-7-(3-isopropylaminoazetidin-1-yl)-8-methyl-4-oxo-1,4-dihydroquinolin-3-carboxylic acid]

melting point: ≥ 244 °C (dec.)
SMILES: CNc1nc(-n2cc(C(=O)O)c(=O)c3cc(F)c(N4CC(NC(C)C)C4)c(Cl)c32)c(F)cc1F [compound 9, 8-Chloro-1-(3,5-difluoro-6-methylaminopyridin-2-yl)-6-fluoro-7-(3-isopropylaminoazetidin-1-yl)-4-oxo-1,4-dihydroquinolin-3-carboxylic acid]

melting point: ≥ 248 °C (dec.)
SMILES: CC(C)Nc1nc(-n2cc(C(=O)O)c(=O)c3cc(F)c(N4CC(NC(C)C)C4)c(Cl)c32)c(F)cc1F [compound 10, 8-Chloro-1-(3,5-difluoro-6-isopropylaminopyridin-2-yl)-6-fluoro-7-(3-isopropylaminoazetidin-1-yl)-4-oxo-1,4-dihydroquinolin-3-carboxylic acid]

melting point: ≥ 220 °C (dec.)
SMILES: CNc1nc(-n2cc(C(=O)O)c(=O)c3cc(F)c(N4CC(NC(C)C)C4)c(Br)c32)c(F)cc1F [compound 11, 8-Bromo-1-(3,5-difluoro-6-methylaminopyridin-2-yl)-6-fluoro-7-(3-isopropylaminoazetidin-1-yl)-4-oxo-1,4-dihydroquinolin-3-carboxylic acid]

Cmax [7]: 5250 ng/mL
Tmax [7]: 1 h
half-life [7]: 5.8 h
AUC [7]: 30900 ng·h/mL
Pharmacokinetics (in words) ([7]; dogs, oral, compared with comparative compounds 3 and 4): remarkably improved
Binding rate to proteins [6]: 64.0%
SMILES: CC(C)NC1CN(c2c(F)cc3c(=O)c(C(=O)O)cn(-c4nc(N)c(F)cc4F)c3c2Br)C1.O=C(O)/C=C\C(=O)O [compound 12, 1-(6-amino-3,5-difluoropyridin-2-yl)-8-bromo-6-fluoro-7-(3-isopropylaminoazetidin-1-yl)-4-oxo-1,4-dihydroquinolin-3-carboxylic acid maleic acid salt]

melting point: ≥ 224 °C (dec.)
SMILES: CC(C)NC1CN(c2c(F)cc3c(=O)c(C(=O)O)cn(-c4nc(N)c(F)cc4F)c3c2Br)C1.CS(=O)(=O)O [compound 13, 1-(6-Amino-3,5-difluoropyridin-2-yl)-8-bromo-6-fluoro-7-(3-isopropylaminoazetidin-1-yl)-4-oxo-1,4-dihydroquinolin-3-carboxylic acid methanesulfonic acid salt]
